# Assay results: patent publication US10072021B2, “Compound for inhibiting binding between DX2 protein and P14/ARF protein, and pharmaceutical composition for treating or preventing cancer disease containing same as effective ingredient” (PUSAN NATIONAL UNIVERSITY INDUSTRY-UNIVERSITY COOPERATION …, priority 2014, dated 2018)
# How the values were obtained:
# H446 xenograft = test system: H446 xenograft
# Description: DK (5 month-old, N=6) mice were administered with carrier, SLCB050 (5 or 10 mg/kg), Adriamycin (1, 2.5, or 5 mg/kg), and a combination of SLCB050 and Adriamycin by intraperitoneal (i.p.) injection. After termination of the experiment of each group, mice were dissected and isolated lung tissues. For xenograft, 1×10^7 H446 cells (ATCC) were seeded in nude ice. After 4 weeks, tumor bearing mice were injected with Adriamycin, […], or a combination thereof for 6 weeks. Every weeks, tumor volume and body weight were measured.
# lung tumors of DK mice = test: In vivo anticancer effect in DK mice (lung tumors); conditions: DK mice, non-toxic dose of Adriamycin, FIG. 10B
# Description: All experimental procedures using laboratory animals were approved by the animal care committee of Pusan National University. DX2 (C57/BL6) and K-RasLA2 (C57/BL6) mice were obtained from Dr. Kim, Sung-Hoon and Professor. Choi, Kang-Ryeol (Yonsei University), respectively, and double Tg mice were obtained by cross-breeding of DX2 and K-RasLA2 mice. Before experiment, all mice were maintained under temperature- and light-controlled conditions (20-23° C., 12 h/12 h light/dark cycle), and provided autoclaved food and water.
# Every weeks, tumor volume and body weight were measured.
# After dissection of mice, tissues were fixed using 10% formalin (in PBS) for 24 hours, and embedded in paraffin blocks according to a basic tissue processing procedure. For histological analysis, embedded tissues were cut for […] by Leica microtome (Wetzlar, Germany) and transferred onto adhesive-coated slides (Marienfeld laboratory glassware, Germany). After deparaffin and rehydration, sections were then stained with H&E for routine examination.
# For IHC staining, rehydrated tissue sections were incubated with antibodies to Ki-67 (Abcam, ab15580), pan-keratin (Sigma, C2931), pro-surfactant C (Millipore, AB3786), NSE (DAKO, IS612), and HER2/Neu (DAKO, A0458) for a reaction. Antigen retrieval was performed using 10 mM sodium citrate (pH 6.0) twice at a temperature of 95° C. for 10 minutes each, and endogenous peroxidase activity was blocked with 3% […] for 10 min. Then, the slides were dehydrated following a standard procedure and sealed with cover glass using mounting solution. TUNEL reaction was done as described in the manual for In Situ Cell Death Detection Kit, POD (Hoffmann-La Roche Ltd, Basel, Swizerland).
# To evaluate tumor incidence, lung tissues of each mouse was fixed and embedded in paraffin. 5 sections from each mouse were examined by 3 independent investigator, who counted tumor. In addition, tumor area was calculated by tumor occupied area in total lung area using photoshop software.
# DX2-p14/ARF binding = molecular target: T1, DX2-p14/ARF binding (Homo sapiens, UniProt Q13155); test: GST pull-down assay of DX2-p14/ARF binding; conditions: FIG. 2A, 3A, 3D, 3E
# T1 construct: made in house; host or cells: E. coli BL21(DE3) for GST-p14/ARF; DX2 from 'cell lysate or recombinant protein'
# T1 sequence (Q13155 1-251 isoform Q13155-2): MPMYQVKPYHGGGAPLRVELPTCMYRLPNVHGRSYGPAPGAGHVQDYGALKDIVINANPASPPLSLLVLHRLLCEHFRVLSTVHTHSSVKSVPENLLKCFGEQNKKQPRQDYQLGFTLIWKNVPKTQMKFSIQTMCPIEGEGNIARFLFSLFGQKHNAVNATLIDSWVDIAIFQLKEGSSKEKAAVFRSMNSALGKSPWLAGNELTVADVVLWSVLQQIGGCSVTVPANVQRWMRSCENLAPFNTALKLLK
# Text: (§1) Through GST pull-down assays, more specific binding inhibitors were selected among the previously screened candidate drugs as DX2-p14/ARF binding inhibitors. That is, a p14/ARF fragment (full-length) was ligated into EcoRI and Hind II sites of pGEX-TEV vector, which is a modified vector by adding a TEV protease cleavage site to pGEX-4T1. The recombinant proteins were then expressed in E. coli strain BL21(DE3) as GST-fusion proteins. The proteins were purified by glutathione affinity chromatography.
# (§2) To address direct binding between the two proteins, agarose-bead conjugated GST (negative control) or GST-target protein was incubated with cell lysate or recombinant protein in radioimmunoprecipitation assay (RIPA) buffer (NaCl, 25 mM Tris-Cl, 1% NP-40, 1% sodium deoxycholate, 0.1% SDS, protease inhibitor mixture) for 1 hour at a temperature of 4° C. for a reaction.
# p53-p14/ARF interaction = molecular target: T2, p53-p14/ARF interaction (Homo sapiens, UniProt P04637+Q8N726); test: GST pull-down assay, selectivity: p53-p14/ARF interaction; format: binding; conditions: FIG. 3D, 3E
# T2 construct: a p14/ARF fragment (full-length) was ligated into EcoRI and Hind II sites of pGEX-TEV vector; made in house; host or cells: E. coli BL21(DE3) for GST-p14/ARF
# T2 sequence (Q8N726 whole entry, the tested form may be a part): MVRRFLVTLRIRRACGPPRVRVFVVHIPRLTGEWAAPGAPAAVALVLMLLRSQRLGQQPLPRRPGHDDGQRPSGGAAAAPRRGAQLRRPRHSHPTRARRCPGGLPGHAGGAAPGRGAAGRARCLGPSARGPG
# T2 sequence (P04637 whole entry, the tested form may be a part): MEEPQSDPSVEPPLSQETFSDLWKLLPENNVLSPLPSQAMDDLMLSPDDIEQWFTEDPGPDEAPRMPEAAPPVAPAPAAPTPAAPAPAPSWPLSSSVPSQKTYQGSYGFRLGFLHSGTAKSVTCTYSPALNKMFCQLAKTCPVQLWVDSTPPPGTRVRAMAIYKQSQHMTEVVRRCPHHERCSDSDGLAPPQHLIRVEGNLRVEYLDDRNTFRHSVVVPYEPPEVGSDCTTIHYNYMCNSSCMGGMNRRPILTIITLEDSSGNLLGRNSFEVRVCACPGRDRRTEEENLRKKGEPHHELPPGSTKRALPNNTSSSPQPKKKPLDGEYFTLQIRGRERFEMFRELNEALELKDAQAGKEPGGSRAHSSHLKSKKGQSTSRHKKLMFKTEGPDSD
# Text: as §1, §2
# [1] = test system: H128 cells (SCLC cell line); test: MTT viability of H128 cells; format: cell-based, human; conditions: MTT assay, FIG. 7
# Description: By MTT assay, anticancer effects were confirmed based on viability of tumor cells. That is, cells were incubated in 0.5 mg/ml of MTT solution for 4 hours at a temperature of 37° C. for a reaction, and then, formazen products formed therefrom were dissolved in dimethyl sulfoxide (DMSO). Then, absorbance thereof was measured at 540 nm by using a spectrometer.
melting point [°C],SMILES,"toxicity, Adriamycin alone (H446 xenograft; Adriamycin 5 mg/kg, three times/week)","tumor growth, Adriamycin alone (H446 xenograft; Adriamycin 5 mg/kg, three times/week, FIG. 9B)","response of H446 xenograft model (H446 xenograft; single agents, FIG. 9A)","anticancer effect, Adriamycin alone (lung tumors of DK mice)",inhibitory effect on DX2-p14/ARF binding (DX2-p14/ARF binding),effect on interaction of p53-p14/ARF (p53-p14/ARF interaction),viability of H128 cells [1]
,"COc1cccc2c1C(=O)c1c(O)c3c(c(O)c1C2=O)C[C@@](O)(C(=O)CO)C[C@@H]3O[C@H]1C[C@H](N)[C@H](O)[C@H](C)O1 [Adriamycin, reference compound]",evoked rapid weight loss and death,tumor growth was suppressed within 4 weeks,resistant,did not show anticancer effect,,,
,"CC1(C)Oc2cc3oc(=O)ccc3cc2C[C@H]1OC(=O)N/C=C/c1ccco1 [HJH141204, (7R)-(−)-2-(Furan-2-yl)vinylcarbamic Acid, 8,8-dimethyl-2-oxo-6,7-dihydro-2H,8H-pyrano[3,2-g]chromen-7-yl-ester]",,,,,showed inhibitory effects on DX2-p14/ARF binding,did not affect the interaction of p53-p14/ARF,reduced the viability of H128 cells in a dose-dependent manner
58.5,"CC1(C)Oc2cc3oc(=O)ccc3cc2C[C@@H]1OC(=O)N/C=C/c1ccco1 [HJH141206, (7S)-(+)-2-(Furan-2-yl)vinylcarbamic acid, 8,8-dimethyl-2-oxo-6,7-dihydro-2H, 8H-pyrano[3,2-g]chromen-7-yl-ester]",,,,,showed inhibitory effects on DX2-p14/ARF binding,did not affect the interaction of p53-p14/ARF,reduced the viability of H128 cells in a dose-dependent manner
,"COc1cc(/C=C/C(=O)O[C@H]2Cc3cc4ccc(=O)oc4cc3OC2(C)C)ccc1O [SLCB36, reference compound]",,,,,did not show inhibitory effect on both binding,did not show inhibitory effect on both binding,did not significantly affect the cell viability
